The source of these data is patent US10683286B2, “Furazan-3-carboxylic acid derivatives and use thereof in treatment of cancer” (FREIE UNIVERSITAET BERLIN, priority 2016, dated 2020).

The target in experiment [1] is T1, STAT5b-SH2 domain (Homo sapiens, UniProt P51692).
T1 sequence (P51692 136-703): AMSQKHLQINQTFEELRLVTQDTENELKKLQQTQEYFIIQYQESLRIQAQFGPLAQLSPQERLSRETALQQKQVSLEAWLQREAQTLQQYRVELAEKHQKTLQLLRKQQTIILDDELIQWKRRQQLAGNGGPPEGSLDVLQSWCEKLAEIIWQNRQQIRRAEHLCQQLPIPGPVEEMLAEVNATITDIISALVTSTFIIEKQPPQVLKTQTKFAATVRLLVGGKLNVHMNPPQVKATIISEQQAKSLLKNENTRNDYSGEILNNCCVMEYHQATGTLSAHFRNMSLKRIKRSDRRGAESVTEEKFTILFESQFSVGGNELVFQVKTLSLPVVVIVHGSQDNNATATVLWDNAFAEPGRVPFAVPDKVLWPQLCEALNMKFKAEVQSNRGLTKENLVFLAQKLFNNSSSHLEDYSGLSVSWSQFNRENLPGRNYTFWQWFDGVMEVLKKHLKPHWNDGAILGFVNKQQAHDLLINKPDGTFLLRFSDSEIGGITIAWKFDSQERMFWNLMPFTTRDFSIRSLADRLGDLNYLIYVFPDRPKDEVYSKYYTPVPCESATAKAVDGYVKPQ
In words: Competitive fluorescence polarization (FP) assay, STAT5b-SH2 domain. The following applies: for activity / binding to the STAT5-SH2 domain: in words. (In fluorescence polarisation assays a small probe gives low polarisation when free and higher when bound to something large.)
Description: The ChemBioNet fragment collection composed in accordance with the substructure composition of the World Drug Index (WDI) was screened both for enhancing and inhibiting fragments of the phosphopeptide-STAT5 interaction.
The clone for Stat5b expression was kindly provided by Thorsten Berg (MPI, Martinsried). Expression of that truncated version of Stat5b (aa 136-703) cloned into a modified pQE70, with N-terminal MBP-tag and C-terminal His-tag was conducted on autoinduction medium (overnight express/Novagen). Cells were grown to an optical density (O.D.) of 0.3 at 37° C., then the temperature was reduced to 20° C. for further 48 h of expression. […] The protein was purified by Ni-chelating chromatography followed by gel filtration (Superdex 200/10 mM HEPES pH 7.8, 100 mM NaCl, 1 mM EDTA, 1 mM DTT, 10% glycerol). A yield of 15 mg MBP-Stat5b-His per liter of culture was obtained and aliquots (200 μl of 3.2 mg/ml) were quick-frozen and stored at −80° C., ready for use.
17000 compounds from the (FMP) ChemBioNet library were tested in a competitive-based fluorescence polarization (FP) assay to investigate the ability of compounds to bind to STAT5b-SH2 domain by displacing respective fluorophore-labeled peptides (5-carboxyfluorescein-GY (PO3H2) LSLPPW-NH2). The peptide purity was >95% and the screening were performed at room temperature. The final concentration of buffer components used was 10 mM HEPES (pH 7.5), 1 mM EDTA, 0.1% Igepal CA-630, 50 mM NaCl, and 5% DMSO. The final concentration of protein used was at 65 nM which correspond to the dissociation constants (Kd) for the individual protein-peptide interactions in assay buffer. The protein was first added to the black 384 well plate (Corning 3676) followed by test compounds and fluorophore-labeled peptide. The plates were centrifuged, and measured using Safire^2 well plate reader (Tecan, Crailsheim, Germany) after 15 minutes incubation at room temperature. […] For the analysis of the data GraphPad Prism 5 was used. Ligand efficiencies (LE) were calculated using equation derived as followed. LE=−ΔG°/HA with (ΔG°) is the standard free energy of binding in KJ and HA is the number of non-hydrogen atoms.

The test system of experiment [2] is BaF3/FLT3-ITD cells. As to the kind of experiment: Cell proliferation assay (Alamar blue). In kind it is cell-based, murine. The procedure: Having proven the functional inhibition of STAT5 as a transcription factor, the effect of STAT5 inhibitors on the proliferation of cancer cells carrying the common FLT3-ITD mutation was investigated. Cells were incubated for 48 h and cell proliferation was quantified by the Alamar blue assay (FIG. 5). […] For comparison, we have tested both compounds on non-STAT5-dependent cell lines and the cytotoxicity effect were negligible up to 500 μM. (FIG. S9).
The effect of compounds on cell lines was evaluated by In Vitro Toxicology Assay Kit, Resazurin based with indicator dye Alamar Blue (Sigma). Adherent and suspension cells were plated at 5×10^3 per well and 1×10^4 per well respectively in triplicate in 96-well plates and incubated in medium containing 10% FBS. For adherent cell, the complete medium was replaced after 24 hours and incubated with test medium containing vehicle control or serial concentration of compounds for 48 hours at 37° C. The remaining wells in the periphery of the microtiter well plate were added PBS and not used to avoid evaporation effects. Alamar Blue was then added, and all plates were incubated at 37° C., and a colorimetric change was measured according to the methods provided by the provided protocol.

Like-named read-outs stand apart in the source and are kept apart here. Where a SMILES comes first, the peptide text is derived from it. [ ]: non-standard residue; d: D form. The star is where a group is joined. 5FAM = O=C1OC2(c3ccc(O)cc3Oc3cc(O)ccc32)c2ccc(C(=O)*)cc21; pY = N[C@@H](Cc1ccc(OP(=O)(O)O)cc1)C(=O)O

As a reminder, the Ki is the dissociation constant of the complex between target and ligand, obtained from inhibition or displacement. `O=Cc1ccc(OP(=O)(O)O)cc1` [Compound 1, 4-Formylphenyl-dihydrogen-phosphate, reference compound] gave an inhibitory constant (Ki) in experiment [1] of over 500 µM.
A word on the Kd: it is the constant that tells how readily two partners part at equilibrium. Lower therefore signals tighter binding. Consider `CC(C)C[C@H](NC(=O)[C@H](Cc1ccc(OP(=O)(O)O)cc1)NC(=O)CNC(=O)c1ccc2c(c1)C(=O)OC21c2ccc(O)cc2Oc2cc(O)ccc21)C(=O)N[C@@H](CO)C(=O)N[C@@H](CC(C)C)C(=O)N1CCC[C@H]1C(=O)N1CCC[C@H]1C(=O)N[C@@H](Cc1c[nH]c2ccccc12)C(N)=O` [Compound 2, Fluo-GY*LSLPPW-NH2, reference compound] (5FAM-G[pY]LSLPPW-NH2), for which, in experiment [1], binding was characterised by a dissociation constant (Kd) of 0.055 µM and the Ki was found to be 0.055 ± 0.006 µM. This molecule also displayed an LE in experiment [1] (Table 1, ligand efficiency) of 0.42 kJ/mol* atom#.
Take `Nc1nonc1C(=O)O` [Compound 4, 4-Amino-furazan-3-carboxylic Acid]: the LE in experiment [1] (Table 1, ligand efficiency) worked out at 2.14 kJ/mol* atom#. The “activity / binding to the STAT5-SH2 domain” value (from here on “activity / binding”) in experiment [1] was “inactive”.
In turn, `c1nnn[nH]1` [Compound 5, 1H-tetrazole, reference compound] showed an inhibition constant Ki in experiment [1] (Table 1, inhibitors of STAT5b, KI converted from IC50) of over 500 µM. Also, in experiment [1], the “activity / binding” value is “inactive”.
In experiment [1], `CCCCOC(=O)c1nonc1NCn1cnnn1` [Compound 7] showed a dissociation constant Kd of 145 µM and a Ki of 48.2 ± 5 µM. In experiment [1] (Table 1, ligand efficiency), this molecule yielded an LE of 1.30 kJ/mol* atom#.
For `COC(=O)c1nsnc1NCn1cnnn1` [Compound 8], in experiment [1], the Ki is over 500 µM and the “activity / binding” value was “inactive”.
Consider `O=C(O)c1nonc1NCn1ccnn1` [Compound 9], for which, in experiment [1], the affinity, expressed as Ki, was 191 ± 24 µM and the “activity / binding” value is “completely inactive”. This molecule also returned an LE in experiment [1] (Table 1, ligand efficiency) of 1.41 kJ/mol* atom#.
`O=C(O)c1nonc1NCn1cncn1` [Compound 10]: in experiment [1], the affinity, expressed as Ki, was 47.5 ± 8.5 µM and the “activity / binding” value is “completely inactive”. In experiment [1] (Table 1, ligand efficiency), this molecule had an LE of 1.64 kJ/mol* atom#.
On to `O=C(O)c1nonc1NCc1ccccn1` [Compound 11], for which, in experiment [1], the Ki is over 500 µM and the “activity / binding” value was “completely inactive”.
Take `O=C(O)c1nonc1NCn1nnc2ccccc21` [Compound 12]: in experiment [1], the Ki is 188 ± 25 µM and the “activity / binding” value is “completely inactive”. The LE in experiment [1] (Table 1, ligand efficiency) was determined as 1.12 kJ/mol* atom#.
In experiment [1], `O=C(O)c1nonc1NCn1cccn1` [Compound 13] displayed a Kd of 122 µM and an inhibition constant Ki of 122 ± 7.3 µM. The same molecule showed an LE in experiment [1] (Table 1, ligand efficiency) of 1.49 kJ/mol* atom#.
Turning to `COC(=O)c1nonc1NC(=O)Cn1cnnn1` [Compound 14], in experiment [1], the Ki was over 500 µM and the “activity / binding” value is given as “abolished the activity”.
In the case of `COC(=O)c1nonc1NCn1nnnc1-c1ccccc1` [Compound 17], in experiment [1], the dissociation constant Kd was found to be 37 µM; the affinity, expressed as Ki, was 37.1 ± 6 µM; the LE is reported as 1.15.
In experiment [1], `COC(=O)c1nonc1NCn1nnnc1-c1ccc(C(F)(F)F)cc1` [Compound 18] yielded a Ki of 94.9 ± 2.1 µM and an LE of 0.88.
The like results for `O=C(O)c1nonc1NCn1nnnc1-c1cccc(OCc2ccccc2)c1` [Compound 19] were, in that order, 1.2 ± 0.5 µM and 1.16.
Taken in the same sequence, the figures for `COC(=O)c1nonc1NCn1nnnc1-c1cccc(C(F)(F)F)c1` [Compound 20] were 9.5 ± 1.8 µM and 1.10.
For `O=C(O)c1nonc1NCn1nnnc1-c1cccc(C(F)(F)F)c1` [Compound 21], in experiment [1], binding was put at a Kd of 0.86 µM, affinity was put at a Ki of 0.86 ± 0.05 µM and the LE turned out to be 1.38.
Molecule `COC(=O)c1nonc1NCn1nnnc1-c1cccc([N+](=O)[O-])c1` [Compound 22] showed a Ki in experiment [1] of over 500 µM.
Turning to `COC(=O)c1nonc1NCn1nnnc1-c1cccc(NS(C)(=O)=O)c1` [Compound 23], in experiment [1], the Ki stood at 18.3 ± 2.4 µM and the LE was determined as 1.00.
Taken in the same sequence, the figures for `COC(=O)c1nonc1NCn1nnnc1-c1cccc(O)c1` [Compound 24] were 22.3 ± 3 µM and 1.21.
The like results for `COC(=O)c1nonc1NCn1nnnc1-c1cccc(OC(F)(F)F)c1` [Compound 25] were, in that order, 16.7 ± 4.3 µM and 1.01.
In experiment [1], `O=C(O)c1nonc1NCn1nnnc1-c1cccc(OC(F)(F)F)c1` [Compound 26] registered an inhibition constant Ki of 3 ± 0.7 µM and an LE of 1.21.
In experiment [1], `O=C(O)c1nonc1NCn1nnnc1-c1cccc(F)c1` [Compound 27] gave a Kd of 0.62 µM, a Ki of 0.62 ± 0.09 µM and an LE of 1.61.
In turn, `O=C(O)c1nonc1NCn1nnnc1-c1ccc(F)cc1` [Compound 28] returned an LE in experiment [1] of 1.42.
With `O=C(O)c1nonc1NCn1nnnc1-c1ccc(-c2ccccc2)cc1` [Compound 29], in experiment [1], the Kd is 0.8 µM, the affinity corresponds to a Ki of 0.8 ± 0.2 µM and the LE turned out to be 1.30.
In experiment [1], `O=C(O)c1nonc1NCn1nnnc1Cc1ccc(F)cc1` [Compound 31] displayed a Ki of 7.2 ± 1.9 µM and an LE of 1.28.
In the case of `O=C(O)c1nonc1NCn1nnnc1COc1ccccc1` [Compound 100], in experiment [2], the “cellular activity (cell proliferation curves, FIG. 8)” value is listed as “significant cellular activity”.
Still for that read-out and setting: the same measure for `O=C(O)c1nonc1NCn1nnnc1CCOc1ccccc1` [Compound 104]: “significant cellular activity”; for `O=C(O)c1nonc1NCn1nnnc1COCc1ccccc1` [Compound 108]: “significant cellular activity”.
For `O=C(O)c1nonc1NCn1nnnc1COCCc1ccccc1` [Compound 113], the “cellular activity (cell proliferation curves, FIG. 8)” value in experiment [2] was “significant cellular activity”.
Same read-out and setting: the same measure for `O=C(O)c1nonc1NCn1nnnc1CCc1ccccc1` [Compound 169]: “significant cellular activity”; for `O=C(O)c1nonc1NCn1nnnc1Cc1cccc(Cl)c1` [Compound 173]: “significant cellular activity”.
The same measure, in the same setting: then `Cc1ccc(Cc2nnnn2CNc2nonc2C(=O)O)cc1` [Compound 174], with “significant cellular activity”; and `COc1ccc(Cc2nnnn2CNc2nonc2C(=O)O)cc1` [Compound 177], with “significant cellular activity”; and `O=C(O)c1nonc1NCn1nnnc1Cc1cccc(F)c1` [Compound 178], with “significant cellular activity”.
Still for that read-out and setting: the same measure for `O=C(O)c1nonc1NCn1nnnc1CCCc1ccccc1` [Compound 196]: “significant cellular activity”.
